Structures can show the parent of a compound that is named as a salt.
Legend:
[1] = Single ascending dose phase 1 study: pharmacokinetics of avibactam after oral avibactam derivative (3) in healthy human volunteers; format: in vivo; details: following oral administration of avibactam derivative (3)
Procedure: The pharmacokinetics of avibactam provided as an orally administered avibactam derivative was determined on healthy human volunteers.
A randomized, double-blind, placebo-controlled single ascending dose phase 1 study was undertaken with healthy male and female adults. Three cohorts, each comprising 10 patients received a single oral dose of 300 mg, 900 mg, or 1,350 mg avibactam derivative (3) (ethyl 3-(((((1R,2S,5R)-2-carbamoyl-7-oxo-1,6-diazabicyclo[3.2.1]octan-6-yl)oxy)sulfonyl)oxy)-2,2-dimethylpropanoate) under fed conditions as a suspension of 10 mg/mL (n=8) or placebo (n−2).
Plasma and urine PK samples were collected prior to dosing and at frequent intervals after dosing.

[2] = Avibactam oral bioavailability in humans; format: in vivo; details: human patients, oral avibactam derivative
From the text: Avibactam derivatives, when orally administered, provide an enhanced oral bioavailability of the β-lactamase inhibitor compared to the oral bioavailability of the parent β-lactamase inhibitor. […] The oral bioavailability of avibactam in a human is about 7%.

[3] = human, avibactam itself given orally; cited from earlier work

| Structure (SMILES) | clearance of avibactam in the systemic compartment [1] | avibactam oral bioavailability [2] | oral bioavailability of avibactam [3] |
| --- | --- | --- | --- |
| CCOC(=O)C(C)(C)COS(=O)(=O)ON1C(=O)N2C[C@H]1CC[C@H]2C(N)=O [avibactam derivative (3), ethyl 3-(((((1R,2S,5R)-2-carbamoyl-7-oxo-1,6-diazabicyclo[3.2.1]octan-6-yl)oxy)sulfonyl)oxy)-2,2-dimethylpropanoate] | rapid clearance | greater than 50 % F |  |
| NC(=O)[C@@H]1CC[C@@H]2CN1C(=O)N2OS(=O)(=O)O [avibactam, [2S,5R]-2-carbamoyl-7-oxo-1,6-diazabicyclo[3.2.1]octan-6-yl hydrogen sulfate] |  |  | about 7% |
